Laboratory results published in EP4745137A1 (Gluetacs Therapeutics (Shanghai) Co., Ltd., priority 2023, dated 2025).
Read-outs that look alike come from different tables or passages of the source.

How the values were obtained:
WEE1 = target: T1, WEE1 (Homo sapiens, UniProt P30291+Q96SW2); test: Western-blot assay of substrate protein degradation in hPBMCs, WEE1; format: cell-based; settings: 24 hours of compound treatment, 50 nM and 500 nM tested (concentration behind the class not stated)
T1 construct: endogenous in cells; host or cells: hPBMCs (Milecell Biotechnologies)

IKZF1 = target: T2, IKZF1 (Homo sapiens, UniProt Q13422+Q96SW2); test: Western-blot assay of substrate protein degradation in hPBMCs, IKZF1; format: cell-based; settings: 24 hours of compound treatment, 50 nM and 500 nM tested (concentration behind the class not stated)
T2 construct: endogenous in cells; host or cells: hPBMCs (Milecell Biotechnologies)

IKZF2 = target: T3, IKZF2 (Homo sapiens, UniProt Q96SW2+Q9UKS7); test: Western-blot assay of substrate protein degradation in hPBMCs, IKZF2; format: cell-based; settings: 24 hours of compound treatment, 50 nM and 500 nM tested (concentration behind the class not stated)
T3 construct: endogenous in cells; host or cells: hPBMCs (Milecell Biotechnologies)

IKZF3 = target: T4, IKZF3 (Homo sapiens, UniProt Q96SW2+Q9UKT9); test: Western-blot assay of substrate protein degradation in hPBMCs, IKZF3; format: cell-based; settings: 24 hours of compound treatment, 50 nM and 500 nM tested (concentration behind the class not stated)
T4 construct: endogenous in cells; host or cells: hPBMCs (Milecell Biotechnologies)

CK1α = target: T5, CK1α (Homo sapiens, UniProt P48729+Q96SW2); test: Western-blot assay of substrate protein degradation in hPBMCs, CK1α; format: cell-based; settings: 24 hours of compound treatment, 50 nM and 500 nM tested (concentration behind the class not stated)
T5 construct: endogenous in cells; host or cells: hPBMCs (Milecell Biotechnologies)

GSPT1 = target: T6, GSPT1 (Homo sapiens, UniProt P15170+Q96SW2); test: Western-blot assay of substrate protein degradation in hPBMCs, GSPT1; format: cell-based; settings: 24 hours of compound treatment, 50 nM and 500 nM tested (concentration behind the class not stated)
T6 construct: endogenous in cells; host or cells: hPBMCs (Milecell Biotechnologies)

[1] = tested on: Human acute T lymphocytic leukemia cells (Molt-4); test: Tumor cell proliferation inhibition (CellTiter-Meiluncell Luminescent Cell Viability Assay), Molt-4; settings: for inhibition at 0.01 µM: MOLT-4, read-out: Inhibition rate (%) at 10 nM; for inhibition at 0.5 µM: MOLT-4, read-out: Inhibition rate (%) at 500 nM
CCRF-CEM = test: Tumor cell proliferation inhibition (CellTiter-Meiluncell Luminescent Cell Viability Assay), CCRF-CEM; settings: Homo sapiens; for inhibition at 0.01 µM: read-out: Inhibition rate (%) at 10 nM; for inhibition at 0.5 µM: read-out: Inhibition rate (%) at 500 nM; for IC50: read-out: inhibitory activity (IC50, nM) against tumor cells proliferation, CCRF-CEM
Kasumi-1 = test: Tumor cell proliferation inhibition (CellTiter-Meiluncell Luminescent Cell Viability Assay), Kasumi-1; settings: Homo sapiens; for inhibition at 0.01 µM: Kasumi 1, read-out: Inhibition rate (%) at 10 nM; for inhibition at 0.5 µM: Kasumi 1, read-out: Inhibition rate (%) at 500 nM
Protocol: (§1) On the following day, the test compounds of the present disclosure were subjected to serial dilution. […] Subsequently, 0.5 µL of the test compound dilution was transferred into the 96-well plate containing the cells, with each well containing 100 µL of cell culture medium. […] Into the 96-well plate, the diluted test compounds and corresponding detection reagents were added, resulting in final test compound concentrations of 500 nM and 10 nM, respectively. The experimental procedure is described below using the diluted 2 µM test compound as an example.
(§2) After the cells were treated with the compounds of the present disclosure for a specified period (the treatment durations were shown in Table 3), the cell viability assay reagent was added to the culture medium according to the kit's instructions to determine cell viability. […] All controls were treated using the same procedure as the compounds of the present disclosure. The growth inhibition curves for the compounds of the present disclosure were plotted using Prism GraphPad software, and the IC50 values were calculated therefrom.

[2] = tested on: Human breast cancer cells (MDA-MB-231); test: Tumor cell proliferation inhibition (CellTiter-Meiluncell Luminescent Cell Viability Assay), MDA-MB-231; settings: for inhibition at 0.01 µM: MDA-MB-231, read-out: Inhibition rate (%) at 10 nM; for inhibition at 0.5 µM: MDA-MB-231, read-out: Inhibition rate (%) at 500 nM
SR = test: Tumor cell proliferation inhibition (CellTiter-Meiluncell Luminescent Cell Viability Assay), SR; settings: Homo sapiens, read-out: inhibitory activity (IC50, nM) against tumor cells proliferation, SR
Vcap = test: Tumor cell proliferation inhibition (CellTiter-Meiluncell Luminescent Cell Viability Assay), Vcap; settings: Homo sapiens, 96 h, read-out: inhibitory activity (IC50, nM) against tumor cells proliferation, Vcap
TMD8 = test: Tumor cell proliferation inhibition (CellTiter-Meiluncell Luminescent Cell Viability Assay), TMD8; settings: Homo sapiens
MM.1S = test: Tumor cell proliferation inhibition (CellTiter-Meiluncell Luminescent Cell Viability Assay), MM.1S; settings: Homo sapiens, MM1.S, read-out: inhibitory activity (IC50, nM) against tumor cells proliferation, MM.1S
MM.1R = test: Tumor cell proliferation inhibition (CellTiter-Meiluncell Luminescent Cell Viability Assay), MM.1R; settings: Homo sapiens, 96 h, read-out: inhibitory activity (IC50, nM) against tumor cells proliferation, MM.1R
SW620 = test: Tumor cell proliferation inhibition (CellTiter-Meiluncell Luminescent Cell Viability Assay), SW620; settings: Homo sapiens, SW-620, 96 h, read-out: inhibitory activity (IC50, nM) against tumor cells proliferation, SW620
Protocol: (§3) The tumor cells used herein were cultured in a cell culture medium listed in table 2 at 37°C in an incubator with 5% CO2. Prior to experimentation, all cell lines used were correctly identified by STR profiling, and tested negative for mycoplasma contamination using a mycoplasma detection kit through routine screenings.
as §1, §2

Jurkat = test: Tumor cell proliferation inhibition (CellTiter-Meiluncell Luminescent Cell Viability Assay), Jurkat; settings: Homo sapiens, read-out: inhibitory activity (IC50, nM) against tumor cells proliferation, Jurkat
CAL-62 = test: Tumor cell proliferation inhibition (CellTiter-Meiluncell Luminescent Cell Viability Assay), CAL-62; settings: Homo sapiens, CAL-62, 96 h, read-out: inhibitory activity (IC50, nM) against tumor cells proliferation, CAL-62
Protocol: as §3, §1, §2

MGC803 = test: Tumor cell proliferation inhibition (CellTiter-Meiluncell Luminescent Cell Viability Assay), MGC803; settings: Homo sapiens, MGC-803, 96 h, read-out: inhibitory activity (IC50, nM) against tumor cells proliferation, MGC803
Protocol: as §3
(§4) On the following day, the test compounds of the present disclosure were subjected to serial dilution. […] Subsequently, 0.5 µL of the test compound dilution was transferred into the 96-well plate containing the cells, with each well containing 100 µL of cell culture medium. […] Into the 96-well plate, the diluted test compounds and corresponding detection reagents were added, resulting in final test compound concentrations of 500 nM and 10 nM, respectively.
as §2

MV-4-11 = test: Tumor cell proliferation inhibition (CellTiter-Meiluncell Luminescent Cell Viability Assay), MV-4-11; settings: Homo sapiens, MV4-11, read-out: inhibitory activity (IC50, nM) against tumor cells proliferation, MV-4-11
Protocol: as §3, §4, §2

NCI-H1975 = test: Tumor cell proliferation inhibition (CellTiter-Meiluncell Luminescent Cell Viability Assay), NCI-H1975; settings: Homo sapiens

T2 sequence (Q13422 whole entry): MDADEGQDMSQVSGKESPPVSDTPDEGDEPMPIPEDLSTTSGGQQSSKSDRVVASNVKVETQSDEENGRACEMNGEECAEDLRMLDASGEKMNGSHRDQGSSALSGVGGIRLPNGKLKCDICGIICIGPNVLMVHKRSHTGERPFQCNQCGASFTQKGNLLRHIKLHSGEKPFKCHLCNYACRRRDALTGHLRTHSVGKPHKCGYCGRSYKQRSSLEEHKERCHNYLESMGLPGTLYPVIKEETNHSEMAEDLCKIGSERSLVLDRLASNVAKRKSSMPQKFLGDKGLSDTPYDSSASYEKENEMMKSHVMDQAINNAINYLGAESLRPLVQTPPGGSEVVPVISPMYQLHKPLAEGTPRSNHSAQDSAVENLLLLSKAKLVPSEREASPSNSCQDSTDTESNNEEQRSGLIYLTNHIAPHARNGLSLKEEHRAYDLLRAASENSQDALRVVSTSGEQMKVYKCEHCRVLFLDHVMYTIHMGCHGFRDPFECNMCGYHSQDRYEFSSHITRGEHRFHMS
T2 sequence (Q96SW2 whole entry): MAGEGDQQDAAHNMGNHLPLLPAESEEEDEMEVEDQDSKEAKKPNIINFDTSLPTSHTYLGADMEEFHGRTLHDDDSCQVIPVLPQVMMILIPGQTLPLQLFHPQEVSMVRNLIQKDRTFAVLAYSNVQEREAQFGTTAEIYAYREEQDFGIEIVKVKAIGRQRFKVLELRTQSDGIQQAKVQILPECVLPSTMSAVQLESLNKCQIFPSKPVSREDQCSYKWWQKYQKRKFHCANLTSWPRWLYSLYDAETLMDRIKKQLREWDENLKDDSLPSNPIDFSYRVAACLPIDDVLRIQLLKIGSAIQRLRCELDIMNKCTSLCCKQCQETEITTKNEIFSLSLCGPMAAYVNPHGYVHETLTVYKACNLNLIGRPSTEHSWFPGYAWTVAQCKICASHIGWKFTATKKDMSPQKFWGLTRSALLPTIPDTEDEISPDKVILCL
T2 sequence (Q16531 whole entry partner): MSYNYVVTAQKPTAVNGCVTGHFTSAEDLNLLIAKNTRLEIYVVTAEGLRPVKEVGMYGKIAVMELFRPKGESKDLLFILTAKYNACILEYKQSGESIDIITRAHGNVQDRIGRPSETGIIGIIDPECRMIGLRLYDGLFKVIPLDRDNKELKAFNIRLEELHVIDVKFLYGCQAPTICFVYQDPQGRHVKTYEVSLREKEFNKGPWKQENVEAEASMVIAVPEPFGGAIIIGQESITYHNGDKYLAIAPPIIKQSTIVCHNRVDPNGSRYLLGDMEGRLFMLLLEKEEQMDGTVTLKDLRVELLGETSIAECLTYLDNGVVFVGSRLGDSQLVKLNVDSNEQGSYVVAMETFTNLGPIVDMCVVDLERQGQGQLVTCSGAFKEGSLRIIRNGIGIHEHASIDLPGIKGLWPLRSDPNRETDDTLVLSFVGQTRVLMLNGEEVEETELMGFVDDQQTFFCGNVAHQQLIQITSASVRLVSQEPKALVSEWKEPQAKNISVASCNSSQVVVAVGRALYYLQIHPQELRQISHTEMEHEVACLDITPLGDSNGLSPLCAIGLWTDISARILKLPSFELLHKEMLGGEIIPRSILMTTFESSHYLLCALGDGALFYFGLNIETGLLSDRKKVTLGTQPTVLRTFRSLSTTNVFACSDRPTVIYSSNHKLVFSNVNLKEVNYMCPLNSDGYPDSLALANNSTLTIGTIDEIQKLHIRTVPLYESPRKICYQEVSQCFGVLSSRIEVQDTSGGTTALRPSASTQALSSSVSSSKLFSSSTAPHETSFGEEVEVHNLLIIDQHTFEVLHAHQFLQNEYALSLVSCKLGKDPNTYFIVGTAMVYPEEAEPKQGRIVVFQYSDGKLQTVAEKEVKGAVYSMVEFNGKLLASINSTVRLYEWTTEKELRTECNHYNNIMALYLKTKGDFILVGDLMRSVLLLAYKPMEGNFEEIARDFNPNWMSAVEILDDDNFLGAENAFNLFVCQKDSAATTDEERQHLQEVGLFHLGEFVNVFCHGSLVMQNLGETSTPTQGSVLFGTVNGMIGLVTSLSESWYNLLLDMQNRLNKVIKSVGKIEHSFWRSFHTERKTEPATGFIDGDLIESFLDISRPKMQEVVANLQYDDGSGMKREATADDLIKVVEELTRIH
T3 sequence (Q9UKS7 whole entry): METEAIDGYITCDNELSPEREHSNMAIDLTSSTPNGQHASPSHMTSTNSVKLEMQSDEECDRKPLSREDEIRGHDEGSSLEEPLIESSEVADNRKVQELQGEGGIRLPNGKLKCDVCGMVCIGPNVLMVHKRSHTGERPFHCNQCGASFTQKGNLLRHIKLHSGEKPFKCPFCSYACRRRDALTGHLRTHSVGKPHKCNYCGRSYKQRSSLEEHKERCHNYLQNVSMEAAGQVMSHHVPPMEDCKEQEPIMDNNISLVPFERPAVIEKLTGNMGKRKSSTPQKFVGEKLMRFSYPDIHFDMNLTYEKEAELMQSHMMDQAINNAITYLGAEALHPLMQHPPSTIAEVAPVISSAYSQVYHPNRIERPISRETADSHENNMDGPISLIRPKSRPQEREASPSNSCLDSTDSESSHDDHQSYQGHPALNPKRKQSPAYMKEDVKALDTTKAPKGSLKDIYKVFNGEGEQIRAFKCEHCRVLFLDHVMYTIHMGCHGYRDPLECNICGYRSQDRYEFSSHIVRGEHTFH
T3 sequence (Q96SW2 whole entry): as the sequence (Q96SW2 whole entry) above
T3 sequence (Q16531 whole entry partner): as the sequence (Q16531 whole entry partner) above
T4 sequence (Q9UKT9 whole entry): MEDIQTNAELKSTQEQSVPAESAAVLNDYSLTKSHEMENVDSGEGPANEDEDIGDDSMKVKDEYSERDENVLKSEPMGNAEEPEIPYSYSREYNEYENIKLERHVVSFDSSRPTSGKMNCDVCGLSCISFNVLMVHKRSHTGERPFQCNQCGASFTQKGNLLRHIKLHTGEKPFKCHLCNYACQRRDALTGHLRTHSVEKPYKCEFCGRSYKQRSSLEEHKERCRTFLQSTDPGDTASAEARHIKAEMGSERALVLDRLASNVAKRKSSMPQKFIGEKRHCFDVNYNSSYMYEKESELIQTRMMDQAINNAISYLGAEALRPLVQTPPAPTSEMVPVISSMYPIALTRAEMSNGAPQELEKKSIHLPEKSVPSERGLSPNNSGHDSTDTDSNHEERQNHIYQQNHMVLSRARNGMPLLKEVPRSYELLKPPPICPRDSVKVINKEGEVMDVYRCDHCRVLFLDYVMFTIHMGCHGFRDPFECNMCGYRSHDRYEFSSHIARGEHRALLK
T4 sequence (Q96SW2 whole entry): as the sequence (Q96SW2 whole entry) above
T4 sequence (Q16531 whole entry partner): as the sequence (Q16531 whole entry partner) above
T5 sequence (P48729 whole entry): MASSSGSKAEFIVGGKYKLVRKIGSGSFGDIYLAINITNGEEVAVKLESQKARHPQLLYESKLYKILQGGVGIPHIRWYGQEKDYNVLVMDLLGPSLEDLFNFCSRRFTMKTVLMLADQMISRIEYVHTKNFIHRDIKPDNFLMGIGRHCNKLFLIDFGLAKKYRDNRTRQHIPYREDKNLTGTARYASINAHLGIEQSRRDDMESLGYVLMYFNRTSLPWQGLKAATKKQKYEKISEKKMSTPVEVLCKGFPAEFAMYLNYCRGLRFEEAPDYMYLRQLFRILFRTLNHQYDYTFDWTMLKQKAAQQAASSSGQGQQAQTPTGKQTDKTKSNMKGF
T5 sequence (Q96SW2 whole entry): as the sequence (Q96SW2 whole entry) above
T5 sequence (Q16531 whole entry partner): as the sequence (Q16531 whole entry partner) above
T1 sequence (P30291 whole entry): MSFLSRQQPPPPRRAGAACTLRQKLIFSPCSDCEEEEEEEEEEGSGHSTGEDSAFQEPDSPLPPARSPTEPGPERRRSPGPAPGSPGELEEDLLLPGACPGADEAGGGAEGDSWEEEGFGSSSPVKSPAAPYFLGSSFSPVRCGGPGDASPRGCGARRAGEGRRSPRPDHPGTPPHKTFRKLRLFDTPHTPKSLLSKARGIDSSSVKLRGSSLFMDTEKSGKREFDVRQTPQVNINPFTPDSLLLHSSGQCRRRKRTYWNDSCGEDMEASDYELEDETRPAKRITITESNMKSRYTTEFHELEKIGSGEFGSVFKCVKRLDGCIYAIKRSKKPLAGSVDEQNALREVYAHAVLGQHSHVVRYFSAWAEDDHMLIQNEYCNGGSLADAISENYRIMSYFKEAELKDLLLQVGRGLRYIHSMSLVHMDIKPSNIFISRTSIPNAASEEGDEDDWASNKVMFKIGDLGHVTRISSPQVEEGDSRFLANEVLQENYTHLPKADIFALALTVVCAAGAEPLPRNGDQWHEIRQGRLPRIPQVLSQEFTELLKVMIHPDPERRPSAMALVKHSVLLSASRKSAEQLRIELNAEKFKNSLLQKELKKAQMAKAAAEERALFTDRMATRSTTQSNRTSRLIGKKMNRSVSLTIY
T1 sequence (Q96SW2 whole entry): as the sequence (Q96SW2 whole entry) above
T1 sequence (Q16531 whole entry partner): as the sequence (Q16531 whole entry partner) above

Row | SMILES | Weel substrate protein remaining % (WEE1) | IKZF 1 substrate protein remaining % (IKZF1) | IKZF2 substrate protein remaining % (IKZF2) | IKZF3 substrate protein remaining % (IKZF3) | CK1a substrate protein remaining % (CK1α) | GSPT1 substrate protein remaining % (GSPT1) | inhibition at 0.01 µM [1] [%] | inhibition at 0.5 µM [1] [%] | inhibition at 0.01 µM (CCRF-CEM) [%] | inhibition at 0.5 µM (CCRF-CEM) [%] | inhibition at 0.01 µM (Kasumi-1) [%] | inhibition at 0.5 µM (Kasumi-1) [%] | inhibition at 0.01 µM [2] [%] | inhibition at 0.5 µM [2] [%] | also measured
1 | O=C1CCC(N2C(=O)c3ccc(CN4CC=C(c5cccc(Cl)c5Cl)CC4)cc3C2=O)C(=O)N1 (stereo not drawn) [GT-07842, 5-((4-(2,3-dichlorophenyl)-3,6-dihydropyridin-1(2H)-yl)methyl)-2-(2,6-dioxopiperidin-3-yl)isoindoline-1,3-dione] | B (80%< substrate protein remaining %≤ 100%) | A (0% ≤ substrate protein remaining % ≤ 80%) | A (0% ≤ substrate protein remaining % ≤ 80%) | A (0% ≤ substrate protein remaining % ≤ 80%) | B (80%< substrate protein remaining %≤ 100%) | A (0% ≤ substrate protein remaining % ≤ 80%) | 20 to 30 | 80 to 90 | 20 to 30 | 90 to 100 | 30 to 40 | 40 to 50 | 20 to 30 | 20 to 30 | –
2 | O=C1CCC(N2C(=O)c3ccc(CN4CC(=C5CCOc6cc(F)ccc65)C4)cc3C2=O)C(=O)N1 (stereo not drawn) [GT-08134, 2-(2,6-dioxopiperidin-3-yl)-5-((3-(7-fluorochroman-4-ylidene)azetidin-1-yl)methyl)isoindoline-1,3-dione] | B (80%< substrate protein remaining %≤ 100%) | A (0% ≤ substrate protein remaining % ≤ 80%) | A (0% ≤ substrate protein remaining % ≤ 80%) | A (0% ≤ substrate protein remaining % ≤ 80%) | B (80%< substrate protein remaining %≤ 100%) | A (0% ≤ substrate protein remaining % ≤ 80%) | – | – | 15 to 20 | 60 to 80 | 10 to 15 | 60 to 80 | 30 to 40 | 20 to 30 | –
3 | Nc1cccc2c1CN(C1CCC(=O)NC1=O)C2=O (stereo not drawn) [lenalidomide, reference compound] | – | – | – | – | – | – | 15 to 20 | 10 to 15 | 10 to 15 | 10 to 15 | 5 to 10 | 0 to 5 | 15 to 20 | 10 to 15 | –
4 | Nc1cccc2c1C(=O)N(C1CCC(=O)NC1=O)C2=O (stereo not drawn) [pomalidomide, reference compound] | – | – | – | – | – | – | – | – | – | – | – | – | – | – | IC50 (SR; 96 h): > 10000 nM; IC50 (SR): > 10000 nM; IC50 (Vcap): > 10000 nM; IC50 (TMD8; TMD8, 96 h, read-out: inhibitory activity (IC50, nM) against tumor cells proliferation, TMD8): 5000 to 10000 nM; IC50 (TMD8; TMD8, read-out: inhibitory activity (IC50, nM) against tumor cells proliferation, TMD8): 5000 to 10000 nM; IC50 (MM.1S): 500 to 1000 nM; IC50 (MM.1R): > 10000 nM; IC50 (SW620): > 10000 nM; IC50 (Jurkat; 96 h): > 10000 nM; IC50 (Jurkat): > 10000 nM; IC50 (CAL-62): > 10000 nM; IC50 ([1]; MOLT-4, 96 h, read-out: inhibitory activity (IC50, nM) against tumor cells proliferation, Molt 4): > 10000 nM; IC50 ([1]; MOLT-4, read-out: inhibitory activity (IC50, nM) against tumor cells proliferation, Molt-4): > 10000 nM; IC50 (MGC803): > 10000 nM; IC50 (MV-4-11): > 10000 nM; IC50 (CCRF-CEM; 96 h): > 10000 nM; IC50 (CCRF-CEM): > 10000 nM; IC50 (NCI-H1975; NCI-H1975, 96 h, read-out: inhibitory activity (IC50, nM) against tumor cells proliferation, H1975): > 10000 nM; IC50 (NCI-H1975; NCI-H1975, read-out: inhibitory activity (IC50, nM) against tumor cells proliferation, H1975): > 10000 nM; IC50 ([2]; MDA-MB-231, 96 h, read-out: inhibitory activity (IC50, nM) against tumor cells proliferation, MDA-MB-231): > 10000 nM
